According to US9109048B2, “Inhibition of tumor growth” (priority 1998, dated 2015):
Values after ≈ are worked out from the molar mass of the structure shown. Ends that are not written are not given here. Peptide text beside a SMILES is read from it. * marks the point of attachment. Acm = CC(=O)NC*

Legend:
Assay type in all cases: cell-based
[1] = tested on: human red blood cells; assay: Hemolytic assay; design: % Hemolysis: dose or concentration left out as unconfirmed
Description: The hemolytic activities of the peptides were determined using fresh human red blood cells. 8 ml blood was taken from a healthy person. 4 ml blood was transferred to a polycarbonate tube containing heparin to a final concentration of 10 U/ml, and the remaining 4 ml blood was transferred to a glass tube containing EDTA with final concentration of 15% EDTA. The erythrocytes were isolated from heparin-treated blood by centrifugation in 1500 rpm for 10 min and washed three times with phosphate-buffered saline (PBS) to remove plasma and buffy coat. The cell pellet was resuspended in PBS to make the final volume of 4 ml. The peptide was diluted to a concentration of 2 mg/ml and 0.1 mg/ml. The peptide was further diluted to the concentrations as stated in Table 1. For each tube PBS was added first, then RBCs and peptide solutions. The hematocrit in the blood treated with EDTA was determined after 30 min with Sysmex K-1000, and the resuspended RBCs were diluted into 10% hematocrit. RBCs in PBS (1%) with and without peptides (Table 18) were incubated in a shaker at 37° for 1 hour and then centrifuged at 4000 rpm for 5 min. The supernatant were carefully transferred to new polycarbonate tubes and the absorbance of the supernatant was measured at 540 nm. Baseline hemolysis was hemoglobin released in the presence of PBS, and 100% hemolysis was hemoglobin released in the presence of 0.1% Triton X-100.

[2] = tested on: Staphylococcus aureus ATCC 25923; assay: MIC (minimum inhibitory concentration) test, microdilution
Description: (§1) The bacterial strains used were: Escherichia coli ATCC 25922 and Staphylococcus aureus ATCC 25923. All strains were stored at −70° C. The bacteria were grown in 2% Bacto Peptone water (Difco 1807-17-4). All tests were performed with bacteria in mid-logarithmic growth phase. Determination of the minimum inhibitory concentration (MIC) of the peptides for bacterial strains were performed in 1% Bacto Peptone water. A standard microdilution technique with an inoculum of 2×10^6 CFU/ml was used. All assays were performed in triplets. Since the peptides are positively charged and therefore could adhere to the plastic wells, we controlled the actual concentration of the peptides in the solution by HPLC. There was no difference between the concentration of the peptides before or after adding the solution to the plastic wells.

[3] = tested on: Escherichia coli ATCC 25922; assay: as above
Description: as §1

Row | Molecule | MIC S. aureus ([2]; ATCC 25923) [µg/mL] | Minimum inhibitory concentration (MIC) S. aureus ATCC 25923 ([2]; Table 1, value in parentheses) [µM] | MIC E. coli ([3]; ATCC 25922) [µg/mL] | Minimum inhibitory concentration (MIC) E. coli ATCC 25922 ([3]; Table 1, value in parentheses) [µM] | also measured
1 | CSCC[C@@H](NC(=O)[C@@H](CCCNC(=N)N)NC(=O)[C@@H](Cc1c[nH]c2ccccc12)NC(=O)[C@@H](CCC(N)=O)NC(=O)[C@@H](Cc1c[nH]c2ccccc12)NC(=O)[C@@H](CCCNC(=N)N)NC(=O)[C@@H](CCCNC(=N)N)NC(=O)[C@@H](CSCNC(C)=O)NC(=O)[C@@H](CCCCN)NC(=O)[C@H](N)Cc1ccccc1)C(=O)N[C@H](CCCCN)C(=O)N[C@H](CCCCN)C(=O)N[C@H](CC(C)C)C(=O)NCC(=O)N[C@H](C)C(=O)O [Enantio LFB 17-31] |  |  |  |  | % Hemolysis [1]: 3.05%
2 | CSCC[C@H](NC(=O)[C@H](CCCNC(=N)N)NC(=O)[C@H](Cc1c[nH]c2ccccc12)NC(=O)[C@H](CCC(N)=O)NC(=O)[C@H](Cc1c[nH]c2ccccc12)NC(=O)[C@H](CCCNC(=N)N)NC(=O)[C@H](CCCNC(=N)N)NC(=O)[C@H](CSCNC(C)=O)NC(=O)[C@@H](N)CCCCN)C(=O)N[C@@H](CCCCN)C(=O)N[C@@H](CCCCN)C(=O)N[C@@H](CC(C)C)C(=O)NCC(=O)N[C@@H](C)C(=O)O [LFB 18-31] (H-KC(Acm)RRWQWRMKKLGA-OH; N-terminus and C-terminus assumed) | 200 (≈ 104 µM) | 108 | 80 (≈ 41.7 µM) | 43 | 
3 | CSCC[C@H](NC(=O)[C@H](CCCNC(=N)N)NC(=O)[C@H](Cc1c[nH]c2ccccc12)NC(=O)[C@H](CCC(N)=O)NC(=O)[C@H](Cc1c[nH]c2ccccc12)NC(=O)[C@H](CCCNC(=N)N)NC(=O)[C@H](CCCNC(=N)N)NC(=O)[C@@H](N)CSCNC(C)=O)C(=O)N[C@@H](CCCCN)C(=O)N[C@@H](CCCCN)C(=O)N[C@@H](CC(C)C)C(=O)NCC(=O)N[C@@H](C)C(=O)O [LFB 19-31] (H-C(Acm)RRWQWRMKKLGA-OH; N-terminus and C-terminus assumed) |  | > 150 |  | 120 | 
4 | CC[C@H](C)[C@H](NC(=O)[C@H](CO)NC(=O)[C@@H]1CCCN1C(=O)[C@H](C)NC(=O)CNC(=O)[C@H](CC(C)C)NC(=O)[C@H](CCCCN)NC(=O)[C@H](CCCNC(=N)N)NC(=O)[C@H](CCSC)NC(=O)[C@H](CCCNC(=N)N)NC(=O)[C@H](CCCNC(=N)N)NC(=O)[C@H](CCC(N)=O)NC(=O)[C@H](Cc1c[nH]c2ccccc12)NC(=O)[C@H](CCC(N)=O)NC(=O)[C@H](Cc1ccc(O)cc1)NC(=O)[C@H](CSCNC(C)=O)NC(=O)[C@H](CCCCN)NC(=O)[C@@H](N)CO)C(=O)N[C@H](C(=O)N[C@@H](CSCNC(C)=O)C(=O)N[C@H](C(=O)N[C@@H](CCCNC(=N)N)C(=O)N[C@@H](CCCNC(=N)N)C(=O)N[C@H](C(=O)N[C@@H](CO)C(=O)O)[C@@H](C)O)C(C)C)[C@@H](C)O [LFC (17-41)] (H-SKC(Acm)YQWQRRMRKLGAPSITC(Acm)VRRTS-OH) |  |  |  |  | Minimum inhibitory concentration (MIC) S. aureus ATCC 25923 ([2]; ATCC 25923): 1000 µg/mL; Minimum inhibitory concentration (MIC) E. coli ATCC 25922 ([3]; ATCC 25922): 750 µg/mL
5 | CSCC[C@H](NC(=O)[C@H](CCCCN)NC(=O)[C@H](CCCCN)NC(=O)[C@H](CC(C)C)NC(=O)CNC(=O)[C@H](C)N)C(=O)N[C@@H](CCCNC(=N)N)C(=O)N[C@@H](Cc1c[nH]c2ccccc12)C(=O)N[C@@H](CCC(N)=O)C(=O)N[C@@H](Cc1c[nH]c2ccccc12)C(=O)N[C@@H](CCCNC(=N)N)C(=O)N[C@@H](CCCNC(=N)N)C(=O)N[C@@H](CSCNC(C)=O)C(=O)N[C@@H](CCCCN)C(=O)N[C@@H](Cc1ccccc1)C(=O)O [Retro LFB 17-31] |  |  |  |  | % Hemolysis [1]: 2.01%
6 | CSCC[C@@H](NC(=O)[C@@H](CCCCN)NC(=O)[C@@H](CCCCN)NC(=O)[C@@H](CC(C)C)NC(=O)CNC(=O)[C@@H](C)N)C(=O)N[C@H](CCCNC(=N)N)C(=O)N[C@H](Cc1c[nH]c2ccccc12)C(=O)N[C@H](CCC(N)=O)C(=O)N[C@H](Cc1c[nH]c2ccccc12)C(=O)N[C@H](CCCNC(=N)N)C(=O)N[C@H](CCCNC(=N)N)C(=O)N[C@H](CSCNC(C)=O)C(=O)N[C@H](CCCCN)C(=O)N[C@H](Cc1ccccc1)C(=O)O [Retro-Enantio LFB 17-31] |  |  |  |  | % Hemolysis [1]: 3.31%
7 | FKARRWAWRMKKLGA-OH [LFB A3, 7] |  |  |  |  | EC 50 (toxicity, hemolysis) ([1]; red cells of human): >1000 µg/mL

Now from value to molecule, other results behind:

Row | MIC S. aureus ([2]; ATCC 25923) [µg/mL] | Minimum inhibitory concentration (MIC) S. aureus ATCC 25923 ([2]; Table 1, value in parentheses) [µM] | MIC E. coli ([3]; ATCC 25922) [µg/mL] | Minimum inhibitory concentration (MIC) E. coli ATCC 25922 ([3]; Table 1, value in parentheses) [µM] | Molecule | also measured
8 | 200 (≈ 98.2 µM) | 100 | 20 (≈ 9.82 µM) | 10 | CSCC[C@H](NC(=O)[C@H](CCCNC(=N)N)NC(=O)[C@H](Cc1c[nH]c2ccccc12)NC(=O)[C@H](CCC(N)=O)NC(=O)[C@H](Cc1c[nH]c2ccccc12)NC(=O)[C@H](CCCNC(=N)N)NC(=O)[C@H](Cc1ccccc1)NC(=O)[C@H](CSCNC(C)=O)NC(=O)[C@H](CCCCN)NC(=O)[C@@H](N)CCCCN)C(=O)N[C@@H](CCCCN)C(=O)N[C@@H](CCCCN)C(=O)N[C@@H](CC(C)C)C(=O)NCC(=O)N[C@@H](C)C(=O)O [LFB F4K1] (H-KKC(Acm)FRWQWRMKKLGA-OH; N-terminus assumed) | 
9 | 200 (≈ 97.3 µM) | 100 | 20 (≈ 9.73 µM) | 10 | CSCC[C@H](NC(=O)[C@H](CCCNC(=N)N)NC(=O)[C@H](Cc1c[nH]c2ccccc12)NC(=O)[C@H](CCC(N)=O)NC(=O)[C@H](Cc1c[nH]c2ccccc12)NC(=O)[C@H](CCCNC(=N)N)NC(=O)[C@H](Cc1ccccc1)NC(=O)[C@H](CSCNC(C)=O)NC(=O)[C@H](CCCCN)NC(=O)[C@@H](N)Cc1ccccc1)C(=O)N[C@@H](CCCCN)C(=O)N[C@@H](CCCCN)C(=O)N[C@@H](CC(C)C)C(=O)NCC(=O)N[C@@H](C)C(=O)O [LFB F4] (H-FKC(Acm)FRWQWRMKKLGA-OH; N-terminus and C-terminus assumed) | 
10 | 100 (≈ 48.9 µM) | 50 | 60 (≈ 29.3 µM) | 30 | CSCC[C@H](NC(=O)[C@H](CCCNC(=N)N)NC(=O)[C@H](Cc1c[nH]c2ccccc12)NC(=O)[C@H](CCC(N)=O)NC(=O)[C@H](Cc1c[nH]c2ccccc12)NC(=O)[C@H](CCCNC(=N)N)NC(=O)[C@H](CCCNC(=N)N)NC(=O)[C@H](CSCNC(C)=O)NC(=O)[C@H](CCCCN)NC(=O)[C@@H](N)CCCCN)C(=O)N[C@@H](CCCCN)C(=O)N[C@@H](CCCCN)C(=O)N[C@@H](CC(C)C)C(=O)NCC(=O)N[C@@H](C)C(=O)O [LFB K1] (H-KKC(Acm)RRWQWRMKKLGA-OH; N-terminus assumed) | 
11 | 5 |  | 10 |  | GIGKFLKKARKFGRAWVRILKKG [Tosmag W16] | 
